Reference: ChEMBL document CHEMBL5543108, “Structure-based design and synthesis of BML284 derivatives: A novel class of colchicine-site noncovalent tubulin degradation agents” (Eur J Med Chem, 2024)

Experiments:
[1] = test system: A2780/Taxol; test: Induction of cell cycle arrest in human A2780T cells assessed as accumulation of cells at G2/M phase at 30 nM measured after 24 hrs by propidium iodide staining based analysis (reference value: 24.13%); type: functional
[2] = test system: MOLM-13; test: Antiproliferative activity against human MOLM-13 cells assessed as reduction in cell viability measured after 72 hrs; type: functional, cell-based; conditions: MOLM-13, 72 h
[3] = Cmax in male Sprague-Dawley rat at 10 mg/kg, po; type: ADME, organism-based; conditions: in vivo
[4] = test system: A2780S; test: Induction of cell cycle arrest in human A2780S cells assessed as accumulation of cells at S phase at 300 nM measured after 24 hrs by propidium iodide staining based analysis (reference value: 29.85%); type: functional
[5] = test system: A2780S; test: Induction of cell cycle arrest in human A2780S cells assessed as accumulation of cells at S phase at 30 nM measured after 24 hrs by propidium iodide staining based analysis (reference value: 29.85%); type: functional

For `COc1cccc(-c2cc(NCc3ccc4[nH]ccc4c3)nc(N)n2)c1`, the Activity [1] was 20%, the IC50 [2] was 20 nM and the Cmax [3] was 77.9 ng/mL. The Activity [4] was 16.35% and the Activity [5] was 28.02%.
